# Experimental data from patent US6383733B1, “Methods of screening for pharmacologically active compounds for the treatment of tumour diseases” (Boehringer Ingelheim International GmbH, priority 1996, dated 2002).
# Columns and labels:
# EpRas cells [1] = experiment: TGFβ1-charged Slow Release Pellets coinjected with EpRas cells in mice; format: in vivo, mouse; conditions: 4 days after subcutaneous injection
# Protocol: (§1) In order to expose Ras-transformed breast epithelial cells to activated TGFβ1 very early in tumour development, TGFβ1 -charged Slow Release Elvax Pellets and either EpRas-epithelial cells or normal EpH4H cells were coinjected subcutaneously in mice. For control purposes pellets, charged only with BSA, were coinjected. The pellets were prepared and charged according to the manufacturer's instructions.
# FIGS. 8E, F: Epithelial EpRas cells were injected subcutaneously into nude mice without (E) or together with 3-Elvax Slow Release Pellets charged with recombinant (active) TGFβ1 (F). Frozen sections obtained from 4 day old tumours were double-stained with antibodies against cytokeratin (red) and vimentin (green). What is noticeable is the dramatic migration of cells into the surrounding tissue induced in the vicinity of the TGFβ1 -releasing pellets (white circle).
# EpRas cells [2] = experiment: Chicken embryo heart invasion assay with EpRas cells; format: cell-based, mouse; conditions: 7 days co-cultivation with heart fragments
# Protocol: This assay was carried out as described by Behrens et al., 1993. In order to be able to distinguish invasive donor cells clearly from chicken heart cells, the test cells were charged with a vital fluorescent dye before examination. For this the cells were incubated for 1 hour in a glucose-containing Hanks saline solution containing […] 5,6-carboxy-2′,7′-dichlorofluorescein diacetate-succinimidyl ester (Molecular Probes) and 0.2×10^−6 M Pluronic F127. In this way the fluorescent dye is covalently bound to intracellular proteins without affecting the viability or behaviour of the cells, determined by various differentiation and proliferation assays. The labelled cells were grown for 24 hours at high density, scraped off the plastic dish and brought into contact with pre-cultivated heart fragments of 9 day old chicken embryos on the surface of a soft agar layer. After 7 days' cultivation the fragments with the adhering cells were collected, flash-frozen in liquid nitrogen, frozen sections were prepared, fixed in methanol/acetone and the fluorescent cells were determined by epifluorescence microscopy (Axiophot, Zeiss).
# EpRas cells [3] = experiment: EF conversion of EpRas cells in collagen type I gels; format: cell-based, mouse
# Protocol: (§2) Semiconfluent cultures of the cells to be analysed were trypsinised and adjusted to a final concentration of 4×10^4 cells per ml with ice-cold growth medium. Equal volumes of the cell suspension and an acidified solution of rat's tail collagen type 1 (Sigma) were mixed at 4° C., applied to 35 mm tissue culture dishes and incubated for 30 min at 37° C., in order to allow the solution to set to a gel. To allow the cells to form organotypical structures, the collagen gels were covered with a serum-free medium (MEGM; Promocel) containing bovine pituary extract (BPE), recombinant epidermal growth factor (EGF), hydrocortisone and insulin (in the concentrations recommended by the manufacturer). Where stated, 5 or 10% FCS or 5 ng/ml recombinant TGFβ1 (literature) were added. The medium covering the collagen gels was changed every two days. In order to neutralise the TGFβ1 produced by the cells or cell structures in the collagen gels a monoclonal antibody against TGFβ1 (Genzyme) or control antibody is used in concentrations of up to 50 μg/ml.
# In order to identify the mechanism underlying the EF conversion, an experimental system was used with which EF conversion can be induced in vitro under defined and physiologically relevant conditions. For this purpose normal EpH4 cells or Ras-transformed subclones of these cells (Ep-Ras clones) were grown in reconstituted collagen type I gels, using serum-free medium. These conditions made it possible to add defined polypeptide growth factors and hormones which are known to be involved in the modulation of the epithelial phenotype. In gels of this kind, normal EpH4 cells developed into organ-like gland channels (tubuli) which frequently terminated in club-shaped hollow swellings. These structures looked very similar to the end buds of the developing mammary gland which are formed by primary breast epithelial cells both in collagen gels and also in vivo (FIG. 3A). These structures could be induced to produce milk proteins efficiently by the addition of lactogenic hormones. […]
# EpH4 cells [4] = experiment: In vitro morphogenesis and apoptosis of normal EpH4 cells in collagen gels; format: cell-based, mouse
# Protocol: as §2
# Since the TGFβ-super-family of polypeptide factors is involved primarily in morphogenetic processes during embryo development, the role of TGFβ1 in normal mammary gland development was also examined within the scope of the present invention. For this purpose normal breast epithelial cells of the cell line EpH4 were sown in serum-free collagen gels. Unlike in the experiments in Example 3, the serum needed during sowing for the collagen gel to set and washed out one day later was specially selected for a low content of TGFβ1. […] Thus, these structures bore some resemblance to the end buds of the developing mammary gland.
# EpH4 cells [5] = experiment: TGFβ1-charged Slow Release Pellets coinjected with EpH4 cells in mice; conditions: mouse, in vivo
# Protocol: as §1
# [6] = system: PAI-1 promoter-reporter gene construct in CT26 cells; experiment: Transient PAI-1 promoter-reporter gene (3TP-lux) luciferase assay; format: cell-based, mouse; conditions: TGFβ added for 24 hours
# Protocol: A PAI-1 promoter-reporter construct (reporter gene was luciferase; 3TP-lux, Wrana et al., 1992) was transfected by lipofectamine transfection (Gibco) according to the manufacturer's instructions into CT26 cells or CT26-TβRII-dn cells. 8 hours after transfection TGFβ1 was added for 24 hours, while the controls were left without TGFβ. Then cell lysates were prepared and the luciferase activity was measured in a Berthold Clinilumat as described by Wrana et al., 1992. In order to determine the transfection efficiency all the cells were cotransfected with an CMV-β-Gal reporter gene construct and the luciferase activities obtained were standardised by the β-Gal fluorescence intensity and by the protein concentration of the extract (Bradford).
# CT26-control cells (CT26 controls) and 5 clones of CT26−TβRII-dn cells (CT26TβRII-dn 1-5) were transfected with a PAI-1 promoter-reporter gene construct (3TP-lux), the cells were stimulated with TGFβ (+TGFβ) or left unstimulated (−TGFβ) and the luciferase activity was measured in cell extracts. […]
# EpRas cells [7] = experiment: Semi-quantitative PCR for TGFβ1-mRNA in cells grown in collagen gels; format: cell-based, mouse; conditions: EpRas clones, 5 ng/ml TGFβ1, five days in collagen gels
# Protocol: Total RNA from cells, grown on plastic, in collagen gels or from tumours, was isolated and processed for the semi-quantitative PCR. A TGFβ1-specific fragment was amplified by means of RT-PCR under semi-quantitative conditions, using -actin primers as the internal control, as described by Leonard et al., 1993. For this the DNA was denatured at 94° C. for 1 min, the primers were annealed at 65° C. for 1 min, and the polymerase reactions were continued at 72° C. for 1 min. The amplification was continued for 20 and 30 cycles. The TGFβ1-specific primers TGGACCGCAA CAACGCCATC TATCCAGAAAA CC (forward) and TGGAGCTGAAGCAATAGTTGGTATCCAGGGCT (reverse) (Clontech Inc.) were used. The results of the PCR were quantitatively evaluated on an Image Quant Phospho-Imager. The values were standardised on the control product (-actin) and subsequently correlated with the value from control-3T3-fibroblast.
# Finally the amounts of TGFβ1-mRNA expressed in the cells and the TGFβ1 -protein released into the culture medium were determined. Three different EpRas clones as well as the parental EpH4 clone were grown for five days in collagen gels. […] At the protein level essentially the same results were obtained when serum-free culture supernatants were analysed by ELISA and Western blot (FIG. 7B).
substance,measurement,setting,value
"TGFβ1: Transforming Growth Factor β1, recombinant polypeptide factor added to cells or charged in Slow Release Elvax Pellets",phenotype and migration of EpRas cells close to a TGFβ1 pellet,EpRas cells [1],converted into irregularly shaped cells just 4 days after the injection and exhibited extensive migration into the surrounding host tissue
same,invasivity of EpRas cells converted by TGFβ1 treatment,EpRas cells [2],capable of migrating efficiently into the heart fragments
same,apoptosis / EFC of Ha-Ras-containing cells,EpRas cells [3]; TGFβ1 5 ng/ml,not induced into apoptosis and undergo EFC without exception
same,growth and phenotype of EpRas cells in collagen gel,"EpRas cells [3]; TGFβ1 on its own, 5 ng/ml, serum-free collagen gel",causes EpRas cells to grow into invasive strings of cells similar to those induced by FCS
same,effect among growth factors added to EpRas cells in collagen gels,"EpRas cells [3]; compared with heregulin, scatter factor/HGF, acidic and basic FGF, PDGF",the only factor which showed striking and long-lasting effects on EpRas cells
same,TGFβ1 concentration causing growth stop and apoptosis of normal epithelial cells,EpH4 cells [4]; EpH4 cells in collagen gels,> 0.25 ng/mL
same,structures formed by EpH4 cells after transient TGFβ1,"EpH4 cells [4]; TGFβ1 0.1 ng/ml until structures had formed, then washed out",formed well-shaped tubular structures with typical lumina
same,structures formed by EpH4 cells,"EpH4 cells [4]; TGFβ1 0.1 ng/ml, serum selected for low TGFβ1 content",able to proliferate and form atypical structures which generally lacked lumina
same,induction of EF conversion in non-tumorigenic control cells,EpH4 cells [4]; collagen gels,not able to induce EF conversion
same,phenotype of EpH4 cells close to TGFβ1 pellets,EpH4 cells [5],could not noticeably influence the phenotype of these non-tumorigenic cells
same,reporter gene transcription in CT26 control cells,[6],activates the reporter gene transcription to levels which are attained in the positive controls
same,TGFβ1-mRNA produced by fibroblastoid cells induced by TGFβ1,EpRas cells [7],produced quantities of TGFβ1-mRNA which were comparable with those of control fibroblasts
